Measured values: PubChem BioAssay (NCI)
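A five-concentration, 48-hour dose response in 96-well plates underlies each endpoint, interpolated linearly between surrounding concentrations. The concentration for 50% growth inhibition is given as GI50. At the TGI there is no net growth.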

How the values were obtained:
Assay in all cases: NCI-60 cell line screen, 48 h
SK-MEL-5 melanoma = tested on: SK-MEL-5 melanoma
UACC-62 melanoma = tested on: UACC-62 melanoma
M14 melanoma = tested on: M14 melanoma
K-562 leukemia = tested on: K-562 leukemia
SK-MEL-2 melanoma = tested on: SK-MEL-2 melanoma
SW-620 colon = tested on: SW-620 colon
IGROV1 ovarian = tested on: IGROV1 ovarian
A549 NSCLC = tested on: A549 NSCLC
A498 renal = tested on: A498 renal
SR leukemia = tested on: SR leukemia

| SMILES | GI50 (SK-MEL-5 melanoma) [µM] | TGI (SK-MEL-5 melanoma) [µM] | GI50 (UACC-62 melanoma) [µM] | TGI (UACC-62 melanoma) [µM] | GI50 (M14 melanoma) [µM] | TGI (M14 melanoma) [µM] | GI50 (K-562 leukemia) [µM] | TGI (K-562 leukemia) [µM] | GI50 (SK-MEL-2 melanoma) [µM] | TGI (SK-MEL-2 melanoma) [µM] | GI50 (SW-620 colon) [µM] | TGI (SW-620 colon) [µM] | GI50 (IGROV1 ovarian) [µM] | TGI (IGROV1 ovarian) [µM] | GI50 (A549 NSCLC) [µM] | TGI (A549 NSCLC) [µM] | TGI (A498 renal) [µM] | GI50 (A498 renal) [µM] | TGI (SR leukemia) [µM] |
| --- | --- | --- | --- | --- | --- | --- | --- | --- | --- | --- | --- | --- | --- | --- | --- | --- | --- | --- | --- |
| Clc1cccc(Cc2cn3cc(-c4ccccc4)nc3s2)c1Cl | > 100 | > 100 | 1.83 | > 100 | > 100 | > 100 | > 100 | > 100 | 22.3 | 80.8 | > 100 | > 100 | 31.4 | > 100 | 27.2 | > 100 | – | – | – |
| CC(=O)OC1COC(n2c(=S)n(-c3ccc(C)cc3)c(=O)c3ccccc32)C(OC(C)=O)C1OC(C)=O (stereo unspecified) | – | > 100 | – | > 100 | – | > 100 | – | – | – | > 100 | – | > 100 | – | > 100 | – | > 100 | > 100 | – | – |
| COc1ccc(-c2cc(=O)c3ccc(O)cc3o2)c(OC)c1OC | – | – | – | > 100 | – | > 100 | – | > 100 | – | > 100 | – | > 100 | – | > 100 | – | > 100 | – | – | – |
| COc1ccccc1NC(=O)CC(=O)n1nc(C)c(N=Nc2ccccc2C(=O)O)c1C | – | > 100 | – | > 100 | – | > 100 | – | > 100 | – | > 100 | – | > 100 | – | > 100 | – | > 100 | > 100 | – | – |
| CCOC(=O)C(Sc1ccccc1)c1c(OC)cc(=O)oc1/C=[N+](/[O-])c1ccc(N(C)C)cc1 (stereo unspecified) | – | 44.9 | – | 51.8 | – | 31.1 | – | 23.8 | – | 77.5 | – | 32.2 | – | > 100 | – | > 100 | > 100 | – | – |
| O=[N+]([O-])c1cnc(Sc2ccncn2)s1 | 4.86 | 14.6 | 6.12 | 16.9 | 2.76 | 7.25 | 1.31 | 3.8 | 7.99 | 21.9 | 1.66 | 3.29 | 1.71 | 3.35 | 10.1 | 27.1 | 33.3 | 18.6 | – |
| CC1=C(C(=O)Nc2ccc(F)c(Cl)c2)C(c2ccc(Cl)cc2)NC(=O)N1 (stereo unspecified) | 15.5 | 30.4 | 14.1 | 27.2 | 16.5 | 33.6 | 0.0173 | 21.3 | 19.1 | 35.3 | 24.8 | 66 | 12.6 | 31.9 | 20.1 | 46.3 | 29 | 13.9 | – |
| CCOC(=O)COc1cccc2c1C(=O)CCO2 | – | > 100 | – | > 100 | – | > 100 | – | > 100 | – | > 100 | – | > 100 | – | > 100 | – | > 100 | > 100 | – | – |
| CCOC(=O)C1=C(C)CC2C(=O)OC(=O)C2C1(C)C (stereo unspecified) | – | > 100 | – | – | – | > 100 | – | > 100 | – | > 100 | – | > 100 | – | > 100 | – | > 100 | – | – | > 100 |
| COc1cc2cnc3c4cc(OC(C)C)c(OC)cc4ccc3c2cc1OC | – | > 100 | – | > 100 | – | > 100 | – | > 100 | – | > 100 | – | > 100 | – | > 100 | – | > 100 | > 100 | – | – |
| CN(CC(=O)O)S(=O)(=O)c1ccc2ccccc2c1 | – | > 100 | – | > 100 | – | > 100 | – | > 100 | – | > 100 | – | > 100 | – | > 100 | – | > 100 | > 100 | – | – |
| COC(=O)[C@@]12C3=NO[C@]1(C(=O)OC)C(O[Si](C)(C)C(C)(C)C)[C@H]1OC(C)(C)O[C@H]1[C@@H]2C(OCc1ccccc1)CC3 (stereo partly specified) | – | > 100 | – | > 100 | – | > 100 | – | > 100 | – | > 100 | – | > 100 | – | > 100 | – | > 100 | > 100 | – | – |
| CCN(CC)CC(C(=O)Nc1c(C)cccc1C)/C(C)=N\NC(=O)C[N+](C)(C)C (stereo unspecified) | – | > 100 | – | > 100 | – | > 100 | – | > 100 | – | – | – | > 100 | – | > 100 | – | > 100 | – | – | > 100 |
| CSc1ccccc1C#C/C=C\C#Cc1ccccc1N1CCCC1=O | – | > 18.3 | – | > 50 | > 12.3 | > 50 | – | > 12.2 | – | > 50 | – | > 17.6 | 14.9 | > 50 | > 11 | > 50 | > 50 | > 50 | – |
| O=c1cc(-c2cccc(O)c2)[nH]c2cc3c(cc12)OCO3 | – | 5.01 | – | 8.67 | – | > 52.5 | – | > 100 | – | – | – | > 100 | – | > 100 | – | > 100 | > 100 | – | – |
| COc1c2ccoc2c(/C=C/C=O)c2oc(-c3ccccc3)cc(=O)c12 | 3.04 | 12.3 | 5.45 | 22.7 | 3.32 | > 100 | 3.21 | > 100 | 10.6 | > 100 | 2.16 | 5.21 | 17.5 | > 100 | 21.5 | > 100 | 40.7 | 7.44 | – |
